The compounds below were run against Prothrombin (Homo sapiens) (UniProt P00734) (assay: Binding affinity for human alpha-thrombin).

Point of comparison: `CC(=O)Nc1cc(Cc2c(-c3ccc(OCCN4CCCC4)cc3)sc3ccccc23)ccc1OCCN1CCCC1`, K ass 310000 l M-1. Against it:
- CCCCc1cc(Cc2c(-c3ccc(OCCN4CCCC4)cc3)sc3ccccc23)ccc1OCCN1CCCC1 — higher, 420000 l M-1
- COc1cc(Cc2c(-c3ccc(OCCN4CCCC4)cc3)sc3ccccc23)ccc1OCCN1CCCC1 — higher, 1.22e+07 l M-1
- FC(F)(F)c1cc(Cc2c(-c3ccc(OCCN4CCCC4)cc3)sc3ccccc23)ccc1OCCN1CCCC1 — higher, 2.4e+06 l M-1
- CS(=O)(=O)Nc1cc(Cc2c(-c3ccc(OCCN4CCCC4)cc3)sc3ccccc23)ccc1OCCN1CCCC1 — higher, 410000 l M-1
- CCNc1cc(Cc2c(-c3ccc(OCCN4CCCC4)cc3)sc3ccccc23)ccc1OCCN1CCCC1 — lower, 290000 l M-1
- Brc1cc(OCCN2CCCC2)ccc1Cc1c(-c2ccc(OCCN3CCCC3)cc2)sc2ccccc12 — lower, 270000 l M-1
- O=S(=O)(Nc1cc(Cc2c(-c3ccc(OCCN4CCCC4)cc3)sc3ccccc23)ccc1OCCN1CCCC1)c1ccccc1 — lower, 220000 l M-1
- O=[N+]([O-])c1cc(Cc2c(-c3ccc(OCCN4CCCC4)cc3)sc3ccccc23)ccc1OCCN1CCCC1 — higher, 1.02e+07 l M-1
- Brc1cc(Cc2c(-c3ccc(OCCN4CCCC4)cc3)sc3ccccc23)ccc1OCCN1CCCC1 — higher, 2.75e+07 l M-1
- Nc1cc(Cc2c(-c3ccc(OCCN4CCCC4)cc3)sc3ccccc23)ccc1OCCN1CCCC1 — higher, 1.1e+06 l M-1
- Oc1cc(Cc2c(-c3ccc(OCCN4CCCC4)cc3)sc3ccccc23)ccc1OCCN1CCCC1 — higher, 1.1e+06 l M-1
- Fc1cc(Cc2c(-c3ccc(OCCN4CCCC4)cc3)sc3ccccc23)ccc1OCCN1CCCC1 — higher, 4.87e+06 l M-1
- Cc1cc(Cc2c(-c3ccc(OCCN4CCCC4)cc3)sc3ccccc23)ccc1OCCN1CCCC1 — higher, 2.42e+07 l M-1
- CCc1cc(Cc2c(-c3ccc(OCCN4CCCC4)cc3)sc3ccccc23)ccc1OCCN1CCCC1 — higher, 7.27e+06 l M-1
- CCCc1cc(Cc2c(-c3ccc(OCCN4CCCC4)cc3)sc3ccccc23)ccc1OCCN1CCCC1 — higher, 1.02e+06 l M-1

Reference: ChEMBL document CHEMBL1130966, “Dibasic benzo[b]thiophene derivatives as a novel class of active site directed thrombin inhibitors. 2. Exploring interactions at the proximal (S2) binding site” (Bioorg Med Chem Lett, 1998)
